Data taken from ChEMBL document CHEMBL6115021, “Design of Benzyl-triazolopyrimidine-Based NADPH Oxidase Inhibitors Leads to the Discovery of a Potent Dual Covalent NOX2/MAOB Inhibitor” (J Med Chem, 2025).
The source made the active and inactive calls. The calls are words filed in the database; no cut-off is given here.

Experiments:
[1] = test system: BV-2; assay: Neuroprotective activity against LPS/IFN-gamma induced mouse BV-2 cells assessed as reduction in ROS level by measuring change in fluorescence intensity at 10 uM incubated for 48 hrs by CellROX reagent based fluorescence analysis; format: functional, cell-based
[2] = biological target: T1, NADPH oxidase 4 (Homo sapiens, UniProt Q9NPH5); assay: Inhibition of human NOX4
T1 sequence (Q9NPH5 whole entry): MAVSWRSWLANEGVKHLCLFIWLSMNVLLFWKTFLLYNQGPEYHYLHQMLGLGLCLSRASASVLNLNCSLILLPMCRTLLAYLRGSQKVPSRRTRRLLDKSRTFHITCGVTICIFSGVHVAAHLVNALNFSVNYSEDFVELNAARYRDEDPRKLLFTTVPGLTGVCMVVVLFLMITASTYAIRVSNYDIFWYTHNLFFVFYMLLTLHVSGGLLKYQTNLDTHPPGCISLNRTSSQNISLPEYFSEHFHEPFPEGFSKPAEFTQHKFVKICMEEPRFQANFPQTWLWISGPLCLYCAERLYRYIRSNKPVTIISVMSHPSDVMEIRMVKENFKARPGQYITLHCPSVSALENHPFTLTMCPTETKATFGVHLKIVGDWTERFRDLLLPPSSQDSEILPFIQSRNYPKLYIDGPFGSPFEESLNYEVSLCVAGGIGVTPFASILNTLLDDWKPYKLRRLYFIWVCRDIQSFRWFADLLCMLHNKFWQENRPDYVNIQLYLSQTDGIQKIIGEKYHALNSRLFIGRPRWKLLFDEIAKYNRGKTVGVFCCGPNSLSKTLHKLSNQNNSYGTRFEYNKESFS

[3] = biological target: T2, NADPH oxidase 2 (Homo sapiens, UniProt P04839); assay: Inhibition of human NOX2
T2 sequence (P04839 whole entry): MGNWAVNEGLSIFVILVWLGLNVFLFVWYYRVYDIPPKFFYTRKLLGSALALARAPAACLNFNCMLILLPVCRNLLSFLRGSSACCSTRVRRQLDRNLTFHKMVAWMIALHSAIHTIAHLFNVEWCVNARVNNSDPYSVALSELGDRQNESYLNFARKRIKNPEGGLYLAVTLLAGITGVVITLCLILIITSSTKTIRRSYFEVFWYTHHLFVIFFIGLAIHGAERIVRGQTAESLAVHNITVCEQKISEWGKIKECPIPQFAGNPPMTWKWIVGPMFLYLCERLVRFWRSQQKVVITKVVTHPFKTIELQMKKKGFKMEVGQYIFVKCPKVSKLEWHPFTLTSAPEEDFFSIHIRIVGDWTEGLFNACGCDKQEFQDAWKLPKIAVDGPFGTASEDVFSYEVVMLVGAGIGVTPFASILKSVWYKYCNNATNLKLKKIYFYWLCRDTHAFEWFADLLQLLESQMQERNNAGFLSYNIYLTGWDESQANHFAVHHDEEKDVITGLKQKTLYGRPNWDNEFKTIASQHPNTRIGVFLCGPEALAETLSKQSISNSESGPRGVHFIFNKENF

[4] = biological target: Albumin (Bos taurus, UniProt P02769); assay: Binding affinity to bovine serum albumin 5 to 20 uM incubated for 30 mins by mass spectrometry analysis; format: ADME; details: cattle, isolated protein, 0.5 h, dose 5-20 µM
Albumin, sequence (P02769 whole entry): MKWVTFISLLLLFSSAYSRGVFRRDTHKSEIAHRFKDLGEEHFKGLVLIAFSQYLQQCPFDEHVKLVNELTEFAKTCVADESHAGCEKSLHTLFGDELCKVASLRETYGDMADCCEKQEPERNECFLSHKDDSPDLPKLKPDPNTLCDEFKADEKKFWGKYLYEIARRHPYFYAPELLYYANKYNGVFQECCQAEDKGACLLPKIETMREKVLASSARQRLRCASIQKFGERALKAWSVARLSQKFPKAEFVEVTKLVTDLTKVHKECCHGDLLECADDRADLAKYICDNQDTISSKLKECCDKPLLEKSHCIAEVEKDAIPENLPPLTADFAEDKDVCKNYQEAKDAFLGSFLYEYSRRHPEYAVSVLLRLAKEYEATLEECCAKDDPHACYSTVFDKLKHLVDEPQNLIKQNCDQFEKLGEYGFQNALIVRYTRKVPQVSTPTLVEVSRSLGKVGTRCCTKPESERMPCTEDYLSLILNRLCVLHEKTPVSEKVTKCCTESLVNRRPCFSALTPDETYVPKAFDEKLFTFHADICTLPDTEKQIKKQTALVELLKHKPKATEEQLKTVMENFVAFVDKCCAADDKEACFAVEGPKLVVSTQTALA

[5] = test system: BV-2; assay: Neuroprotective activity against LPS/IFN-gamma induced mouse BV-2 cells assessed as effect on cell viability at 10 uM incubated for 48 hrs by MTT assay; format: functional, cell-based
[6] = biological target: T2, NADPH oxidase 2; assay: Inhibition of human NOX2 by cell based assay
[7] = biological target: T3, NADPH oxidase 5 (Homo sapiens, UniProt Q96PH1); assay: Inhibition of human NOX5
T3 sequence (Q96PH1 whole entry): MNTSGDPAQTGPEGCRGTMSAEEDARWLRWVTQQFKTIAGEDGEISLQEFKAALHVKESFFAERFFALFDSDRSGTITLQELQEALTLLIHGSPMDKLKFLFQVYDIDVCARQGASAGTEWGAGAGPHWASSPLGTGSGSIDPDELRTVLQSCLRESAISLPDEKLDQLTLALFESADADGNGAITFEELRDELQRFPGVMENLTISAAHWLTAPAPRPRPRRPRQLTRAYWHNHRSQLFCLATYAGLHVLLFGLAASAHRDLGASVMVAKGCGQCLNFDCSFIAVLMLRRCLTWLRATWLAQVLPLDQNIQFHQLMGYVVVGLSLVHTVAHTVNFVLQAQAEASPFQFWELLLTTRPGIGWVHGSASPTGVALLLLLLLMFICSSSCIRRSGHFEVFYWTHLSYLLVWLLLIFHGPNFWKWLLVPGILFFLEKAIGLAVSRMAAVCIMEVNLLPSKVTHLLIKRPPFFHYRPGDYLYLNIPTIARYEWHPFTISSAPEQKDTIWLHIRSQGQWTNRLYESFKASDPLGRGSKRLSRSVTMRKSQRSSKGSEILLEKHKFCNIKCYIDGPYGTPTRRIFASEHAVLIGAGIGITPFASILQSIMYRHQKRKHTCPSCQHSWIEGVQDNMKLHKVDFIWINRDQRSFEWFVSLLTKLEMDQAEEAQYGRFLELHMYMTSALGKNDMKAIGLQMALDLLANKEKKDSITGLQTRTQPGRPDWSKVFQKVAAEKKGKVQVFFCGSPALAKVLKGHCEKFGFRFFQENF

[8] = biological target: T4, NADPH oxidase 1 (Homo sapiens, UniProt Q9Y5S8); assay: Inhibition of human NOX1
T4 sequence (Q9Y5S8 whole entry): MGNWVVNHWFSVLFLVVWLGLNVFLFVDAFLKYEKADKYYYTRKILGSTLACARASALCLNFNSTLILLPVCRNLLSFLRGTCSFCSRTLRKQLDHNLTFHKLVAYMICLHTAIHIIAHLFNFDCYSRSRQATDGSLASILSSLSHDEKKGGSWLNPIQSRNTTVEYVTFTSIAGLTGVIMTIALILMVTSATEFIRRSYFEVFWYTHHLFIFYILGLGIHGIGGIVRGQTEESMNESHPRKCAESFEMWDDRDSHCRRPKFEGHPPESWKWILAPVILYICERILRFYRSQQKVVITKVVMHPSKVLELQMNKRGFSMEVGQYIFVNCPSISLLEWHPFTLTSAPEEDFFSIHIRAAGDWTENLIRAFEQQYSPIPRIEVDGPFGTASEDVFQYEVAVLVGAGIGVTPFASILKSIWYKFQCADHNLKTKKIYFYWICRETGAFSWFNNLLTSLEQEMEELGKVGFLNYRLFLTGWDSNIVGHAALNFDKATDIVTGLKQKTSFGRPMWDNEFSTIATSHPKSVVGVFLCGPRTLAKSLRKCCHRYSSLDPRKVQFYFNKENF

Compound	IC50 [2] [µM]	IC50 [3] [µM]	EC50 [6] [µM]	Activity [1]	Activity [5]	also measured
c1ccc(Cn2nnc3c(Sc4nc5ccccc5o4)ncnc32)cc1	–	–	–	Active	–	–
Clc1ncnc2c1nnn2Cc1ccccc1	5.7	5.1	–	–	–	–
C#CCN(C)Cc1ccc(Cn2nnc3c(Sc4nc5ccccc5o4)ncnc32)cc1	–	–	–	Active	Active	Activity [4]: Not_active
C#CCN[C@@H]1CCc2ccccc21	–	–	–	–	Active	–

More lines, main results first:

IC50 [2] [µM]	IC50 [3] [µM]	EC50 [6] [µM]	Compound	Activity [1]	Activity [5]	also measured
5.7	5.1	2.1	O=C1c2ccccc2-c2cc(N3CCC4(CC3)OCCO4)nc3cccc1c23	–	–	–
81.2	7.7	5.7	c1ccc(-c2cc(NC3CCNCC3)nc3ccccc23)cc1	–	–	IC50 [7]: 28 µM; IC50 [8]: 71.2 µM
